Experimental data: BindingDB's records for doi:10.1021/acs.jmedchem.9b01967 (The University of Tokyo, 2020)

Assay: Inhibition of ATX (unknown origin)-mediated cell migration in human MDA-MB-231 cells assessed as reduction in cell motility after 3 hrs by Diff-Quick staining based microplate reader analysis

IC50: 30 nM
SMILES: CCCCCCn1c(C)cc(=O)n2cc(-c3ccc(Cl)cc3)nc12
